From US11453683B1, “KRas G12D inhibitors” (Mirati Therapeutics, Inc., priority 2019, dated 2022) come the findings set out here.

Where a name gives a salt, the structure may show the parent alone. Where only a bound is given, the exact number is not on record here.

The assay concerns KRas G12D-mediated phosphorylation of ERK. The experiment in a line: Inhibition of KRas G12D-mediated phosphorylation of ERK in AGS cells. Conditions: Homo sapiens; AGS cells expressing G12D, 3 hours, phospho-ERK normalized to GAPDH. The class given is cell-based. The method, then:
Cells were plated in tissue culture treated 96 well plates at a density of 40,000 cells/well and allowed to attach for 12-14 hours. Diluted compounds were then added in a final concentration of 0.5% DMSO. After 3 hours, the medium was removed, 150 μL of 4.0% formaldehyde was added and the plates incubated at room temperature for 20 minutes. The plates were washed with PBS, and permeabilized with 150 μL of ice cold 100% methanol for 10 minutes. Non-specific antibody binding to the plates was blocked using 100 μL Licor blocking buffer (Li-Cor Biotechnology, Lincoln Nebr.) for 1 hour at room temperature.
The amount of phospho-ERK was determined using an antibody specific for the phosphorylated form of ERK and compared to the amount of GAPDH. Primary antibodies used for the detection were added as follows: Phospho-ERK (Cell Signaling cs-9101) diluted 1:500 and GAPDH (Millipore MAB374) diluted 1:5000 in Licor block+0.05% Tween 20. The plates were incubated for 2 hours at room temperature. The plates were washed with PBS+0.05% Tween 20.
Secondary antibodies used to visualize primary antibodies were added as follows: Anti-rabbit-680 diluted 1:1000 and Anti-mouse-800 diluted 1:1000 both in Licor block+0.05% TweeN2O, and were incubated for 1 hour at room temperature. The plates were washed with PBS+0.05% Tween 20. A 100 μL aliquot of PBS was added to each well and the plates were read on a Li-Cor Odyssey CLX plate reader.
The phospho-ERK (Thr202/Tyr204 signal was normalized to the GAPDH signal for each well and percent of DMSO control values were calculated. IC50 values were generated using a 4-parameter fit of the dose response curve

As for `C#Cc1cccc2cccc(-c3ncc4c(N5C[C@H]6CC[C@@H](C5)N6)nc(OC[C@@H]5CCCN5C)nc4c3F)c12` [Example 206, 4-((1R,5S)-3,8-diazabicyclo[3.2.1]octan-3-yl)-7-(8-ethynylnaphthalen-1-yl)-8-fluoro-2-(((S)-1-methylpyrrolidin-2-yl)methoxy)pyrido[4,3-d]pyrimidine], the IC50 turned out to be 0.9 µM.

In the case of `CC1(N)CN(c2nc(N3C[C@H]4CC[C@@H](C3)N4)c3cnc(-c4cc(O)cc5ccccc45)c(F)c3n2)C1` [Example 124, 4-(2-(3-amino-3-methylazetidin-1-yl)-4-((1R,5S)-3,8-diazabicyclo[3.2.1]octan-3-yl)-8-fluoropyrido[4,3-d]pyrimidin-7-yl)naphthalen-2-ol], the concentration for half-maximal inhibition (IC50) amounted to 11.1 µM.

As to `C#Cc1c(F)ccc2cccc(-c3ncc4c(N5C[C@H]6CC[C@@H](C5)N6)nc(OC[C@]56CCCN5[C@@H](COC(=O)N(C)C)CC6)nc4c3F)c12` [Example 439, ((3R,7aR)-7a-(((4-((1R,5S)-3,8-diazabicyclo[3.2.1]octan-3-yl)-7-(8-ethynyl-7-fluoronaphthalen-1-yl)-8-fluoropyrido[4,3-d]pyrimidin-2-yl)oxy)methyl)hexahydro-1H-pyrrolizin-3-yl)methyl dimethylcarbamate], the midpoint of inhibition, the IC50, lay at 0.0128 µM.

In the case of `C[C@H]1CN2CCC[C@@]2(COc2nc(N3CC4CCC(C3)N4)c3cnc(-c4cccc5cccc(Cl)c45)c(F)c3n2)C1` (stereo in doubt) [Example 227, 4-((1R,5S)-3,8-diazabicyclo[3.2.1]octan-3-yl)-7-(8-chloronaphthalen-1-yl)-8-fluoro-2-((2-methyltetrahydro-1H-pyrrolizin-7a(5H)-yl)methoxy)pyrido[4,3-d]pyrimidine bis-hydrochloride], the midpoint of inhibition, the IC50, lay at 2.98 µM.

`Cc1cccc(CCOc2nc(N3C[C@H]4CC[C@@H](C3)N4)c3cnc(-c4cc(O)cc5ccccc45)c(F)c3n2)n1` [Example 87, 4-(4-((1R,5S)-3,8-diazabicyclo[3.2.1]octan-3-yl)-8-fluoro-2-(2-(6-methylpyridin-2-yl)ethoxy)pyrido[4,3-d]pyrimidin-7-yl)naphthalen-2-ol] had a 50% inhibitory concentration (IC50) of 10.6 µM. This IC50 lies about 3.6-fold higher than the previous one.

Molecule `CC(C)(C)[Si](C)(C)OCC1CCC2(COc3nc(N4C[C@H]5CC[C@@H](C4)N5)c4cnc(-c5cccc6cccc(Cl)c56)c(F)c4n3)CCCN12` (stereo partly drawn) [Example 64, 4-((1R,5S)-3,8-diazabicyclo[3.2.1]octan-3-yl)-2-((3-(((tert-butyldimethylsilyl)oxy)methyl)tetrahydro-1H-pyrrolizin-7a(5H)-yl)methoxy)-7-(8-chloronaphthalen-1-yl)-8-fluoropyrido[4,3-d]pyrimidine] gave a 50% inhibitory concentration (IC50) of 3.97 µM. This IC50 lies about 2.7-fold lower than the previous one.

In turn, `CCc1c(F)ccc2cccc(-c3ncc4c(N5CC6CCC(C5)N6)nc(OC[C@@]56CCCN5C[C@H](F)C6)nc4c3F)c12` (stereo in doubt) [Example 381, 4-((1R,5S)-3,8-diazabicyclo[3.2.1]octan-3-yl)-7-(8-ethyl-7-fluoronaphthalen-1-yl)-8-fluoro-2-((2-fluorotetrahydro-1H-pyrrolizin-7a(5H)-yl)methoxy)pyrido[4,3-d]pyrimidine] had an IC50 of 0.708 µM. Against the preceding molecule, the IC50 is about 5.6-fold lower.

For the molecule `Oc1cc(-c2ncc3c(N4C[C@H]5CC[C@@H](C4)N5)nc(OCC45CCCN4C(CF)CC5)nc3c2F)c2c(Cl)cccc2c1` (stereo partly drawn) [Example 400, 4-(4-((1R,5S)-3,8-diazabicyclo[3.2.1]octan-3-yl)-8-fluoro-2-((3-(fluoromethyl)tetrahydro-1H-pyrrolizin-7a(5H)-yl)methoxy)pyrido[4,3-d]pyrimidin-7-yl)-5-chloronaphthalen-2-ol], the half-inhibitory concentration (IC50) came out at 0.261 µM.

Consider `Fc1c(-c2cccc3cccc(-c4c[nH]nn4)c23)ncc2c(N3C[C@H]4CC[C@@H](C3)N4)nc(OCC34CCCN3CCC4)nc12` [Example 180, 7-(8-(1H-1,2,3-triazol-4-yl)naphthalen-1-yl)-4-((1R,5S)-3,8-diazabicyclo[3.2.1]octan-3-yl)-8-fluoro-2-((hexahydro-1H-pyrrolizin-7a-yl)methoxy)pyrido[4,3-d]pyrimidine], for which the concentration for half-maximal inhibition (IC50) was above 16.7 µM.

As to `Cc1cccc2cccc(-c3ncc4c(N5C[C@H]6CC[C@@H](C5)N6)nc(OC[C@@H]5CCCN5C)nc4c3F)c12` [Example 15, 4-((1R,5S)-3,8-diazabicyclo[3.2.1]octan-3-yl)-8-fluoro-7-(8-methylnaphthalen-1-yl)-2-(((S)-1-methylpyrrolidin-2-yl)methoxy)pyrido[4,3-d]pyrimidine], the IC50 was above 16.7 µM.

Take `CN1CCC[C@H]1COc1nc(N2CC3CCC(Cl)(C2)N3)c2cnc(-c3cc(O)cc4ccccc34)c(F)c2n1` (stereo partly drawn) [Example 160, 4-(4-(1-chloro-3,8-diazabicyclo[3.2.1]octan-3-yl)-8-fluoro-2-(((S)-1-methylpyrrolidin-2-yl)methoxy)pyrido[4,3-d]pyrimidin-7-yl)naphthalen-2-ol bis(2,2,2-trifluoroacetate)]: the IC50 was 6.93 µM.

Turning to `COC1(OC)CN2CCCC2(COc2nc(N3C[C@H]4CC[C@@H](C3)N4)c3cnc(-c4cccc5cccc(Cl)c45)c(F)c3n2)C1` (stereo partly drawn) [Example 404, 4-((1R,5S)-3,8-diazabicyclo[3.2.1]octan-3-yl)-7-(8-chloronaphthalen-1-yl)-2-((2,2-dimethoxytetrahydro-1H-pyrrolizin-7a(5H)-yl)methoxy)-8-fluoropyrido[4,3-d]pyrimidine], the half-maximal inhibitory concentration (IC50) stood at 8.33 µM.

In the case of `COc1cccc2cccc(-c3ncc4c(N5C[C@H]6CC[C@@H](C5)N6)nc(OCC56CCCN5CCC6)nc4c3F)c12` [Example 236, 4-((1R,5S)-3,8-diazabicyclo[3.2.1]octan-3-yl)-8-fluoro-2-((hexahydro-1H-pyrrolizin-7a-yl)methoxy)-7-(8-methoxynaphthalen-1-yl)pyrido[4,3-d]pyrimidine], the IC50 worked out at 2.63 µM.

Consider `CC(C)c1ccccc1-c1ncc2c(N3CC4CCC(C3)N4)nc(OCC34CCCN3C[C@H](F)C4)nc2c1F` (stereo partly drawn) [Example 348, 4-((1R,5S)-3,8-diazabicyclo[3.2.1]octan-3-yl)-8-fluoro-2-((2-fluorotetrahydro-1H-pyrrolizin-7a(5H)-yl)methoxy)-7-(2-isopropylphenyl)pyrido[4,3-d]pyrimidine], for which the half-maximal inhibitory concentration (IC50) came out at 0.779 µM.

In turn, `Oc1cc(-c2ncc3c(N4C[C@H]5CC[C@@H](C4)N5)nc(OCC45CCCN4CCC5)nc3c2F)c2c(F)cccc2c1` [Example 367, 4-(4-((1R,5S)-3,8-diazabicyclo[3.2.1]octan-3-yl)-8-fluoro-2-((tetrahydro-1H-pyrrolizin-7a(5H)-yl)methoxy)pyrido[4,3-d]pyrimidin-7-yl)-5-fluoronaphthalen-2-ol tris(2,2,2-trifluoroacetate)] came in with a half-maximal inhibitory concentration (IC50) of 0.112 µM. Compared with the last molecule, the IC50 is about 7-fold lower.

For `CC(=O)N1CCC(Oc2nc(N3C[C@H]4CC[C@@H](C3)N4)c3cnc(-c4cc(O)cc5ccccc45)c(F)c3n2)CC1` [Example 78, 1-(4-((4-((1R,5S)-3,8-diazabicyclo[3.2.1]octan-3-yl)-8-fluoro-7-(3-hydroxynaphthalen-1-yl)pyrido[4,3-d]pyrimidin-2-yl)oxy)piperidin-1-yl)ethan-1-one], the IC50 was above 16.7 µM.

Regarding `NCC#Cc1cccc2cccc(-c3ncc4c(N5C[C@H]6CC[C@@H](C5)N6)nc(OCC56CCCN5CCC6)nc4c3F)c12` [Example 241, 3-(8-(4-((1R,5S)-3,8-diazabicyclo[3.2.1]octan-3-yl)-8-fluoro-2-((tetrahydro-1H-pyrrolizin-7a(5H)-yl)methoxy)pyrido[4,3-d]pyrimidin-7-yl)naphthalen-1-yl)prop-2-yn-1-amine], the IC50 was above 16.7 µM.

Take `Oc1cc(-c2ncc3c(N4C[C@H]5CC[C@@H](C4)N5)nc(OCCc4ccc(F)cn4)nc3c2F)c2ccccc2c1` [Example 102, 4-(4-((1R,5S)-3,8-diazabicyclo[3.2.1]octan-3-yl)-8-fluoro-2-(2-(5-fluoropyridin-2-yl)ethoxy)pyrido[4,3-d]pyrimidin-7-yl)naphthalen-2-ol]: half-maximal inhibition (IC50) required 7.96 µM.

`Nc1ccc(CCOc2nc(N3C[C@H]4CC[C@@H](C3)N4)c3cnc(-c4cccc5cccc(Cl)c45)c(F)c3n2)cn1` [Example 141, 5-(2-((4-((1R,5S)-3,8-diazabicyclo[3.2.1]octan-3-yl)-7-(8-chloronaphthalen-1-yl)-8-fluoropyrido[4,3-d]pyrimidin-2-yl)oxy)ethyl)pyridin-2-amine] returned an IC50 above 16.7 µM.

On to `O[C@@H]1C[C@@H]2CN(c3nc(N4CCC4)nc4c(F)c(-c5cccc6cccc(Cl)c56)ncc34)C[C@H]1N2` [Example 152, (1R,5R,6R)-3-(2-(azetidin-1-yl)-7-(8-chloronaphthalen-1-yl)-8-fluoropyrido[4,3-d]pyrimidin-4-yl)-3,8-diazabicyclo[3.2.1]octan-6-ol], for which the IC50 was above 50 µM.

`Cn1ccnc1CCOc1nc(N2C[C@H]3CC[C@@H](C2)N3)c2cnc(-c3cc(O)cc4ccccc34)c(F)c2n1` [Example 3, 4-(4-((1R,5S)-3,8-diazabicyclo[3.2.1]octan-3-yl)-8-fluoro-2-(2-(1-methyl-1H-imidazol-2-yl)ethoxy)pyrido[4,3-d]pyrimidin-7-yl)naphthalen-2-ol] showed an IC50 of 10.3 µM.
